Source: patent publication US20200339544A1 (JOINT STOCK COMPANY "BIOCAD", priority 2017, published 2020)
Read-outs that look alike come from different tables or passages of the source. Marks after values point to notes of the source that are not given here.

Tests used:
[1] = Chemical stability in human blood plasma; format: in vitro ADME; settings: pooled human blood plasma; 10 μm; 4 hours at 37° C.; substance amount remaining
Method in brief: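 Percent of parent remaining was derived by comparing HPLC peak areas at time zero and after 4 h at 37 °C. Test compound was at 10 μM in human plasma pooled from ten donors, and proteins were precipitated with acetonitrile before analysis.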

[2] = Enzyme stability in human liver S9 fractions; format: in vitro ADME; settings: 0.5 mg/mL pooled human liver S9 fractions; 10 μM compound; 37° C.; pH 7.4; read-out: Stability in liver S9 fractions, Clint
Method: Determination of enzyme stability.
Measuring of candidate enzyme stability enabled estimation of the stability of the compounds towards the action of liver enzymes.
Enzyme degradation rate was measured by incubating the reaction mixture in a dry block thermostat at 37° C., said reaction mixture comprising 0.5 mg/mL of pooled human liver S9 fractions (XenoTech, USA, cat # H0610), 10 μM compound, 2 mM β-nicotinamide adenine dinucleotide (Carbosynth, UK, cat # NN10871) and 4 mM magnesium chloride in 0.1 M sodium-phosphate buffer, pH=7.4. The reaction was quenched with acetonitrile (100 μL of acetonitrile/100 μL of the reaction mixture). After quenching, the samples were centrifuged at 10000 rpm for 10 minutes. Supernatant fluid was tested by chromatographic technique using Agilent1200 (Agilent, USA). We used gradient elution (1 mL/min flow rate). A graph of the logarithm of substance's peak area as a function of time was made. The dependent factor of the line corresponded to the elimination rate constant K based on which the drug's half-life T½ and intrinsic clearance CLint were calculated:
Based on the data obtained, candidate enzyme stability in human liver S9 fractions was determined (see Table 11).

WT EGFR (Wild-Type EGFR) = molecular target: T1, WT EGFR (Wild-Type EGFR) (Homo sapiens, UniProt P00533); assay: Inhibition of WT EGFR kinase activity (ADP-Glo); format: biochemical
T1 construct: purchased SignalChem
Method in brief: (§1)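 Luminescent ADP-Glo readout was used for both wild-type and L858R/T790M EGFR, each run 180 minutes at 37° C. Reactions used a solution of 50 μM ATP with 0.5 mg/mL peptide substrate. Four-parameter logistic curves gave IC50.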

[3] = molecular target: T2, DM EGFR (DoubleMutantEGFR, L828R/T790M) (Homo sapiens, UniProt P00533, L858R/T790M); assay: Inhibition of DM EGFR kinase activity (ADP-Glo); format: biochemical; settings: for IC50: inhibition of kinase activity, EGFR DM (L828R/T790M); for SI, IC50(WT)/IC50(DM): selectivity index, kinase EGFR WT vs EGFR DM
T2 construct: purchased SignalChem
Method in brief: as §1

[4] = tested on: A549 (lung adenocarcinoma, WT); assay: Antiproliferative activity on A549 cells (Alamar Blue); format: cell-based; settings: Homo sapiens, antiproliferative test
Method in brief: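 Viability read by Alamar Blue fluorescence (λEx 540, λEm 590 nm) 3-5 h after dye addition, following 72 h compound treatment at 37° C in 2% FBS RPMI-1640, ≤1% DMSO. Seeding 5*10^3 cells/well, 16-18 h attachment. Four-parameter logistic model gave IC50.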

[5] = tested on: HCC827 (lung adenocarcinoma, SM, exon19delE746-A750); assay: Antiproliferative activity on HCC827 cells (Alamar Blue); format: cell-based; settings: Homo sapiens, antiproliferative test
Method: Antiproliferative activity of EGFR inhibitors (Tables 15 and 16) was measured in cell-based bioassay on continuous epithelial cell cultures: A549 (lung adenocarcinoma, ATCC® CRM-CCL-185™—WT), HCC827 (lung adenocarcinoma, ATCC® CRL-2868™—SM (SingleMutantEGFR, exon19delE746-A750)) and H1975 (lung adenocarcinoma, ATCC® CRL-5908™—DM (DoubleMutantEGFR, L828R/T790M)) using cell viability reagent Alamar Blue (ThermoFisher, # DAL1100). Cells were cultured in 10% FBS-supplemented (Gibco, #16140071) RPMI-1640 (PanEco, S330p) for at least 1 passage after thawing, washed with PBS and passaged in 96-well culture plates (3599, Corning) with RPMI-1640 growth medium supplemented with 2% FBS in an amount of 5*10^3 cells/well for A549, 10*10^3 cells/well for HCC827 and 15*10^3 cells/well for H1975 in 100 μL, and incubated at 37° C. in an incubator (Thermo Forma, USA) under 5% of CO2 for 16-18 h for cell attachment.
The test compounds were dissolved in DMSO in the selected range of concentrations and transferred to RPMI-1640 medium (PanEco, S330p) supplemented with 2% FBS. After adding 50 μl of the prepared dilutions to the cells, the incubation mixture contained the final concentrations of the test substances and no more than 1% DMSO. The plates were Incubated at 37° C. for 72 h. After incubation, 15 μl of Alamar Blue vital dye (ThermoFisher, # DAL1100) was added to each well. The plates were shaken on an orbital shaker (Biosan, Latvia) and further incubated for 3-5 h in a CO2 incubator (Thermo Forma, USA). Number of living cells was estimated using a plate spectrophotometer Infinite M200Pro, (Tecan, Switzerland) measuring fluorescent signal at the excitation wavelength (λEx) of 540 nm and emission wavelength (λEm) of 590 nm.
IC50 was calculated using Magellan 7.2 software (Tecan, Switzerland) approximating experimental points by four-parameter logistic model with the optimization by Levenberg-Marquardt.

[6] = tested on: H1975 (lung adenocarcinoma, DM, L828R/T790M); assay: Antiproliferative activity on H1975 cells (Alamar Blue); format: cell-based; settings: for IC50: Homo sapiens, NCI-H1975, H1975 cells; for SI IC50(A549)/IC50(DM): selectivity index, A549 vs H1975 cells
Method in brief: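 IC50 was fitted with a four-parameter logistic model to Alamar Blue fluorescence (540/590 nm), read 3-5 h after dye addition. Before that, compounds acted on attached H1975 cells, 15*10^3 per well in 2% FBS RPMI-1640, for 72 h at 37 °C, DMSO no more than 1%.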

[7] = General cytotoxicity on HepG2 cells; format: cell-based; settings: human; general cytotoxicity, HepG2 cells, 72 hours, average of several tests
Method in brief: (§2)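 HepG2 cells seeded at 2*10^4 cells per well and compounds added in DMEM with 2% FBS for 72 h at 37 °C. Viability read with Alamar Blue and CC50 derived as for IC50. Therapeutic index taken as HepG2 CC50 over H1975 IC50.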

HepG2 cells = assay: General cytotoxicity on HepG2 cells; format: cell-based; settings: therapeutic index, CC50 HepG2 / IC50 H1975
Method in brief: as §2

[8] = Chemical stability in simulated gastric fluid (SGF); format: physicochemical; settings: SGF without enzymes, pH 1,4; 10 μm; 2 hours at 37° C.; substance amount remaining
Method: (§3) 1) Determination of chemical stability in simulated intestinal fluid, simulated gastric fluid and human blood plasma.
(§4) SGF concentrate without enzymes, pH=1,4 (Sigma Ireland, cat #01651) was used as simulated gastric fluid. Initial candidate solution (10 mM in DMSO) was diluted with a SGF working solution to a concentration of 10 μm (test solution). The test solution was incubated in a dry block thermostat for 2 hours at 37° C. SIF concentrate without enzymes, pH=6.5 (Sigma Ireland, cat #55331) was used as simulated intestinal fluid. Initial candidate solution (10 mM in DMSO) was diluted with a SIF working solution to a concentration of 10 μm (test solution). The test solution was incubated in a dry block thermostat for 2 hours at 37° C. HPLC with Agilent 1200 liquid chromatography system (Agilent, USA) was employed to determine peak areas of the compounds in test samples, said peak areas corresponding to the initial test time (prior to incubation) and the final test time (after incubation in a dry block thermostat for 2 hours at 37° C.). We used gradient elution (1 mL/min flow rate). Substance amount in % in a sample after thermostatting was determined.
(§5) The stability of the compounds was estimated.

[9] = Chemical stability in simulated intestinal fluid (SIF); format: physicochemical; settings: SIF without enzymes, pH 6.5; 10 μm; 2 hours at 37° C.; substance amount remaining
Method: as §3, §4, §5

[10] = average values obtained in several tests, Table 16, read-out: H1975 (DM) IC50
[11] = antiproliferative test, Table 15, read-out: IC50 H1975 (DM)

Stability in blood plasma, % [1] [%] | Intrinsic clearance in human liver S9 fractions at 10 µM [2] [µL/min/mg] | IC50 (WT EGFR (Wild-Type EGFR)) [µM] | IC50 [3] [µM] | SI, IC50(WT)/IC50(DM) [3] | IC50 [4] [µM] | IC50 [5] [µM] | IC50 [6, 10] [µM] | IC50 [6, 11] [µM] | Stability in SGF, % [8] [%] | Stability in SIF, % [9] [%] | Structure (SMILES) | SI IC50(A549)/IC50(DM) [6] | CC50 at 72 h [7] [µM] | TI, CC50/IC50 (HepG2 cells)
92.8 | 18.7 | 0.0975 | 0.0105 | 9.27 | 2.47 | 0.0263 | 0.221 | 0.221 |  |  | C=CC(=O)Nc1cc(Nc2nccc(C(=O)c3ccc(OC4CCCCC4)cc3)n2)c(OC)cc1N(C)CCN(C)C [EGFR_3365_67, N-(5-((4-(4-(cyclohexyloxy)benzoyl)pyrimidin-2-yl)amino)-2-((2-(dimethylamino)ethyl)(methyl)amino)-4-methoxyphenyl)acrylamide] | 11 | 9.46 | 43
99.0 | 2.1 | 0.0296 | 0.00096 | 30.92 | 3.27 | 0.0135 | 0.00255 | 0.00255 |  |  | C=CC(=O)Nc1cc(Nc2nccc(C(=O)c3ccc(N4CCC(N(C)C)CC4)cc3)n2)c(OC)cc1N(C)CCN(C)C [EGFR_3365_121a, N-(2-((2-(dimethylamino)ethyl)(methyl)amino)-5-((4-(4-(4-(dimethylamino)piperidin-1-yl)benzoyl)pyrimidin-2-yl)amino)-4-methoxyphenyl) acrylamide] | 1284 | 11.8 | 4649
100.0 |  |  |  |  |  |  |  |  | 100.0 | 100.0 | C=CC(=O)Nc1cc(Nc2nccc(C(=O)c3ccc(OC(C)C)cc3OC(C)C)n2)c(OC)cc1N(C)CCN(C)C [EGFR_3365_71, N-(5-((4-(2,4-diisopropoxybenzoyl)pyrimidin-2-yl)amino)-2-((2-(dimethylamino)ethyl)(methyl)amino)-4-methoxyphenyl)acrylamide] |  |  | 
100.0 | 3.8 | 0.0309 | 0.00237 | 13.01 | 16.4 | 0.00519 | 0.0045 | 0.0045 |  |  | C=CC(=O)Nc1cc(Nc2nccc(C(=O)c3ccc(N4CCN(C)CC4)cc3OC)n2)c(OC)cc1N(C)CCN(C)C [EGFR_3365_120, N-(2-((2-(dimethylamino)ethyl)(methyl)amino)-4-methoxy-5-((4-(2-methoxy-4-(4-methylpiperazin-1-yl)benzoyl)pyrimidin-2-yl)amino)phenyl)acrylamide] | 3644 | 29.3 | 6514
 |  | 0.145 | 0.00553 | 26.20 | 4.42 | 0.0139 | 0.0342 | 0.0342 |  |  | C=CC(=O)Nc1cc(Nc2cc(C(=O)c3ccc(N(CC)CC)cc3)ccn2)c(OC)cc1N(C)CCN(C)C | 129 | 7.82 | 229
89.4 | 11.3 | 0.109 | 0.00293 | 37.17 | 84.1 |  | 0.0216 | 0.0216 |  |  | C=CC(=O)Nc1cc(Nc2nccc(C(=O)c3ccc(NCCOC)cc3)n2)c(OC)cc1N(C)CCN(C)C [EGFR_3365_105, N-(2-((2-(dimethylamino)ethyl)(methyl)amino)-4-methoxy-5-((4-(4-((2-methoxyethyl)amino)benzoyl)pyrimidin-2-yl)amino)phenyl)acrylamide] | 3898 | 45.6 | 2114

Structure (SMILES) | Stability in blood plasma, % [1] [%] | Intrinsic clearance in human liver S9 fractions at 10 µM [2] [µL/min/mg] | IC50 (WT EGFR (Wild-Type EGFR)) [µM] | IC50 [3] [µM] | SI, IC50(WT)/IC50(DM) [3] | IC50 [4] [µM] | IC50 [5] [µM] | IC50 [6, 10] [µM] | IC50 [6, 11] [µM] | Stability in SGF, % [8] [%] | Stability in SIF, % [9] [%] | SI IC50(A549)/IC50(DM) [6] | CC50 at 72 h [7] [µM] | TI, CC50/IC50 (HepG2 cells)
C=CC(=O)Nc1cc(Nc2nccc(C(=O)c3ccc(NCCO)cc3)n2)c(OC)cc1N(C)CCN(C)C.O=CO [EGFR_3365_106, N-(2-((2-(dimethylamino)ethyl)(methyl)amino)-5-((4-(4-((2-hydroxyethyl)amino)benzoyl)pyrimidin-2-yl)amino)-4-methoxyphenyl)acrylamide formate] | 95.2 | 6.7 | 0.108 | 0.0055 | 19.68 | > 20 |  | 0.0333 | 0.0333 |  |  | >601 | > 50 | >1501**
C=CC(=O)Nc1cc(Nc2cc(C(=O)c3ccc(OCC(C)C)cc3)ccn2)c(OC)cc1N(C)CCN(C)C [EGFR_3365_77, N-(2-((2-(dimethylamino)ethyl)(methyl)amino)-5-((4-(4-isobutoxybenzoyl)pyridin-2-yl)amino)-4-methoxyphenyl) acrylamide] |  |  | 0.0499 | 0.00497 | 10.04 | 2.17 | 0.0235 | 0.249 | 0.249 |  |  | 9 | 8.34 | 33
